Data: publication PMC6917776, “Discovery of a chemical probe for PRDM9” (Nature Communications, 2019)

Tested on: H3K4me3 at known PRDM9 binding loci and control TSS loci
Test: ChIP-qPCR of H3K4me3 in PRDM9-transfected HEK293T cells
Type: cell-based, human
Conditions: for dCq (IP-Input): H3K4me3 antibody, Replicate 1; for 2^-dCq (H3K4me3 ChIP-qPCR, IP relative to H3) / H3K4me3 ChIP-qPCR 2^-dCq (IP-Input): Replicate 2; for 2^-dCq (H3K4me3 ChIP-qPCR, IP relative to H3): Antibody H3K4me3; for H3K4me3 ChIP-qPCR 2^-dCq (IP-Input): chr2:40281930-40282015 Intragenic (SLC8A1-AS1), Figure 7 C, H3K4me3 antibody relative to H3
Method: ChIP-qPCR assays were then conducted on known PRDM9 binding loci[26]. Ectopic expression of PRDM9^WT increased trimethylation of H3K4 (H3K4me3) at previously described PRDM9-specific intragenic and intergenic regions[26] (Fig. 7; Supplementary Fig. 12). […] The observed increases in H3K4me3 levels at intragenic and intergenic regions are therefore due directly to PRDM9 PR domain-dependent methylation activity, rather than through recruitment of other H3K4 methyltransferases or other indirect mechanisms.
ChIP qPCR analyses of H3K4me3 methylation levels of known PRDM9-bound loci and control loci. […] Concentrations used (µM) are indicated below each plot. (a–d) represent reported loci of PRDM9 methylation; (e, f) are transcriptional start sites (TSSs) which are not known loci of PRDM9 methylation. Data are normalized to total H3 and are presented as the mean ± upper and lower limits from two replicates. Representative plots of two independent experiments are shown in this figure. The coordinates and the genomic features associated with the assayed loci are indicated above each plot. Left Tailed Student's t-tests were performed by comparing DMSO (0 µM) treated cells to compound treated cells that have been transfected with the same plasmids. *p-value < 0.05 and **p-value < 0.01. Note that here we show a representative of two independent experiments (mean ± s.d of technical replicates) for our ChIP-qPCR experiments. Data obtained using this technique are inherently noisy due to stochastic differences in gene activity/histone positioning. Data are thus typically presented as representative rather than averaged. Source data are provided as a Source Data file.
HEK293T cells were transfected with 37.5 μg empty pcDNA3.1(+) vector (Invitrogen), or the same vector expressing either wild-type PRDM9 (PRDM9^WT) or a catalytically dead PRDM9 mutant (PRDM9^Mut) and 75 μL of Lipofectamine 2000 (Invitrogen) in 6 mL of Opti-MEM (GIBCO) for 48 h. […] ChIP assays were then performed as previously described. Briefly, cells were fixed in 1% formaldehyde and the fixation reaction was quenched in a final concentration of 0.1 M glycine. Cell pellets were first lysed in LB1 (50 mM HEPES-KOH pH 7.5, 140 mM NaCl, 1 mM EDTA, 10% Glycerol, 0.5% Igepal, 0.25% TritonX), washed once in LB2 Buffer (10 mM Tris-HCl pH 8, 200 mM NaCl, 1 mM EDTA, 0.5 mM EGTA) and finally sonicated in LB3 buffer (10 mM Tris-HCl pH 8, 100 mM NaCl, 1 mM EDTA, 0.5 mM EGTA, 0.1% Sodium deoxycholate, 0.5% N-laurosylsarcosine) using a bioruptor (Diagenode). Thereafter, 50 μg of chromatin was subjected to ChIP using the following antibodies purchased from Abcam: α-H3K4me3 (1:200, ab8580, lot:GR3207339-1) and α-H3 (1:250, ab1791, lot:GR300978-4). After extensive washing in RIPA wash buffer (50 mM HEPES-KOH pH 7.6, 100 mM LiCl, 1 mM EDTA, 1% Igepal, 0.7% Sodium Deoxycholate), DNA was eluted from beads. The eluted DNA was treated with RNase A and Proteinase K and purified using the QIAGEN PCR purification kit. qPCR was then carried out targeting the indicated loci (Supplementary Table 3). Upper and lower limits were defined by |2^−(dCq±s) − 2^−(∆Cq)|, where s = √((Standard deviation of Input Cq)^2 + (Standard deviation of Target Cq)^2). […]
formation. ChIP qPCR analyses of H3K4me3 methylation levels at known PRDM9-bound and control loci. Cells transfected with empty vector (negative control) or vectors overexpressing either wild-type PRDM9 (PRDM9 WT) or catalytically dead PRDM9 (PRDM9 MUT) were […]
Panels a-d represent reported loci of […]
(1 picture or pasted object on this page, not shown here)
PRDM9 methylation; e-f are TSSs which are not known sites of PRDM9 methylation. Data are normalized to total H3 and are presented as the mean ± upper and lower limits from two […]

## COc1cc(OC)cc(-c2noc(N3CCN(C)C4(CCN(c5ccnc(C)c5)CC4)C3)n2)c1 [MRK-740]
chr8:49932778-49932856 (Intergenic), PRDM9
  dCq (IP-Input): -2.203
chr8:49932778-49932856 (Intergenic), PRDM9_Cat.Dead
  dCq (IP-Input): 1.033
chr12:6643945-6644023 TSS (GAPDH), Empty Vector
  dCq (IP-Input): -5.504
chr12:6643945-6644023 TSS (GAPDH), PRDM9
  dCq (IP-Input): -5.409
chr12:6643945-6644023 TSS (GAPDH), PRDM9_Cat.Dead
  dCq (IP-Input): -6.466
chr19:8510167-8510261 TSS (HNRNPM), Empty Vector
  dCq (IP-Input): -5.657
chr19:8510167-8510261 TSS (HNRNPM), PRDM9
  dCq (IP-Input): -5.412
chr19:8510167-8510261 TSS (HNRNPM), PRDM9_Cat.Dead
  dCq (IP-Input): -6.463
HEK293T transfected with wild-type PRDM9, 48 h
  H3K4me3 levels at tested TSS sites (ChIP-qPCR, in words): No significant reduction in H3K4me3 levels
HEK293T transfected with wild-type PRDM9, 48 h, various concentrations
  H3K4me3 levels at PRDM9-dependent intragenic and intergenic loci (ChIP-qPCR, in words): abrogated in a concentration-dependent manner in three out of four PRDM9-dependent loci
Figure 7 D chr3:165514798-165514911 Intragenic (BCHE), Plasmid Empty Vector, Drug Conc. 2.5
  2^-dCq (H3K4me3 ChIP-qPCR, IP relative to H3): 0.6821
Figure 7 D chr3:165514798-165514911 Intragenic (BCHE), Plasmid Empty Vector, Drug Conc. 5
  2^-dCq (H3K4me3 ChIP-qPCR, IP relative to H3): 0.9187
Figure 7 D chr3:165514798-165514911 Intragenic (BCHE), Plasmid Empty Vector, Drug Conc. 10
  2^-dCq (H3K4me3 ChIP-qPCR, IP relative to H3): 0.5228
Figure 7 D chr3:165514798-165514911 Intragenic (BCHE), Plasmid PRDM9WT, Drug Conc. 2.5
  2^-dCq (H3K4me3 ChIP-qPCR, IP relative to H3): 6.769
Figure 7 D chr3:165514798-165514911 Intragenic (BCHE), Plasmid PRDM9WT, Drug Conc. 5
  2^-dCq (H3K4me3 ChIP-qPCR, IP relative to H3): 7.878
Figure 7 D chr3:165514798-165514911 Intragenic (BCHE), Plasmid PRDM9WT, Drug Conc. 10
  2^-dCq (H3K4me3 ChIP-qPCR, IP relative to H3): 3.468
Figure 7 E chr12:6643945-6644023 TSS (GAPDH), Plasmid Empty Vector, Drug Conc. 2.5
  2^-dCq (H3K4me3 ChIP-qPCR, IP relative to H3): 49.5681
Figure 7 E chr12:6643945-6644023 TSS (GAPDH), Plasmid Empty Vector, Drug Conc. 5
  2^-dCq (H3K4me3 ChIP-qPCR, IP relative to H3): 83.0384
Figure 7 E chr12:6643945-6644023 TSS (GAPDH), Plasmid Empty Vector, Drug Conc. 10
  2^-dCq (H3K4me3 ChIP-qPCR, IP relative to H3): 114.864
Figure 7 E chr12:6643945-6644023 TSS (GAPDH), Plasmid PRDM9WT, Drug Conc. 2.5
  2^-dCq (H3K4me3 ChIP-qPCR, IP relative to H3): 64.1133
Figure 7 E chr12:6643945-6644023 TSS (GAPDH), Plasmid PRDM9WT, Drug Conc. 5
  2^-dCq (H3K4me3 ChIP-qPCR, IP relative to H3): 130.72
Figure 7 E chr12:6643945-6644023 TSS (GAPDH), Plasmid PRDM9WT, Drug Conc. 10
  2^-dCq (H3K4me3 ChIP-qPCR, IP relative to H3): 21.1787
Figure 7 F chr19:8510167-8510261 TSS (HNRNPM), Plasmid Empty Vector, Drug Conc. 2.5
  2^-dCq (H3K4me3 ChIP-qPCR, IP relative to H3): 123.77
Figure 7 F chr19:8510167-8510261 TSS (HNRNPM), Plasmid Empty Vector, Drug Conc. 5
  2^-dCq (H3K4me3 ChIP-qPCR, IP relative to H3): 107.435
Figure 7 F chr19:8510167-8510261 TSS (HNRNPM), Plasmid Empty Vector, Drug Conc. 10
  2^-dCq (H3K4me3 ChIP-qPCR, IP relative to H3): 99.1079
Figure 7 F chr19:8510167-8510261 TSS (HNRNPM), Plasmid PRDM9WT, Drug Conc. 2.5
  2^-dCq (H3K4me3 ChIP-qPCR, IP relative to H3): 68.6717
Figure 7 F chr19:8510167-8510261 TSS (HNRNPM), Plasmid PRDM9WT, Drug Conc. 5
  2^-dCq (H3K4me3 ChIP-qPCR, IP relative to H3): 143.684
Figure 7 F chr19:8510167-8510261 TSS (HNRNPM), Plasmid PRDM9WT, Drug Conc. 10
  2^-dCq (H3K4me3 ChIP-qPCR, IP relative to H3): 36.5414
Empty Vector, Drug Conc. 2.5
  H3K4me3 ChIP-qPCR 2^-dCq (IP-Input): 0.6992
Empty Vector, Drug Conc. 5
  H3K4me3 ChIP-qPCR 2^-dCq (IP-Input): 0.9795
Empty Vector, Drug Conc. 10
  H3K4me3 ChIP-qPCR 2^-dCq (IP-Input): 0.6781
PRDM9WT, Drug Conc. 2.5
  H3K4me3 ChIP-qPCR 2^-dCq (IP-Input): 6.293
PRDM9WT, Drug Conc. 5
  H3K4me3 ChIP-qPCR 2^-dCq (IP-Input): 5.934
